Measured values reported in ChEMBL document CHEMBL4507281, “Data for DCP probe BI-4394” (2021).

Experiments:
[1] = tested on: ALK tyrosine kinase receptor (Homo sapiens), Q9UM73 [L1196M]; conditions: Compound concentration 100.0 nM
[2] = tested on: Tyrosine-protein kinase ABL1 (Homo sapiens), P00519 [Q252H]; conditions: Compound concentration 100.0 nM
[3] = biological target: Bone morphogenetic protein receptor type-2 (Homo sapiens) (UniProt Q13873); conditions: Compound concentration 100.0 nM
[4] = biological target: Receptor tyrosine-protein kinase erbB-3 (Homo sapiens) (UniProt P21860); conditions: Compound concentration 100.0 nM
Receptor tyrosine-protein kinase erbB-3 (Homo sapiens), sequence (P21860 whole entry, canonical isoform): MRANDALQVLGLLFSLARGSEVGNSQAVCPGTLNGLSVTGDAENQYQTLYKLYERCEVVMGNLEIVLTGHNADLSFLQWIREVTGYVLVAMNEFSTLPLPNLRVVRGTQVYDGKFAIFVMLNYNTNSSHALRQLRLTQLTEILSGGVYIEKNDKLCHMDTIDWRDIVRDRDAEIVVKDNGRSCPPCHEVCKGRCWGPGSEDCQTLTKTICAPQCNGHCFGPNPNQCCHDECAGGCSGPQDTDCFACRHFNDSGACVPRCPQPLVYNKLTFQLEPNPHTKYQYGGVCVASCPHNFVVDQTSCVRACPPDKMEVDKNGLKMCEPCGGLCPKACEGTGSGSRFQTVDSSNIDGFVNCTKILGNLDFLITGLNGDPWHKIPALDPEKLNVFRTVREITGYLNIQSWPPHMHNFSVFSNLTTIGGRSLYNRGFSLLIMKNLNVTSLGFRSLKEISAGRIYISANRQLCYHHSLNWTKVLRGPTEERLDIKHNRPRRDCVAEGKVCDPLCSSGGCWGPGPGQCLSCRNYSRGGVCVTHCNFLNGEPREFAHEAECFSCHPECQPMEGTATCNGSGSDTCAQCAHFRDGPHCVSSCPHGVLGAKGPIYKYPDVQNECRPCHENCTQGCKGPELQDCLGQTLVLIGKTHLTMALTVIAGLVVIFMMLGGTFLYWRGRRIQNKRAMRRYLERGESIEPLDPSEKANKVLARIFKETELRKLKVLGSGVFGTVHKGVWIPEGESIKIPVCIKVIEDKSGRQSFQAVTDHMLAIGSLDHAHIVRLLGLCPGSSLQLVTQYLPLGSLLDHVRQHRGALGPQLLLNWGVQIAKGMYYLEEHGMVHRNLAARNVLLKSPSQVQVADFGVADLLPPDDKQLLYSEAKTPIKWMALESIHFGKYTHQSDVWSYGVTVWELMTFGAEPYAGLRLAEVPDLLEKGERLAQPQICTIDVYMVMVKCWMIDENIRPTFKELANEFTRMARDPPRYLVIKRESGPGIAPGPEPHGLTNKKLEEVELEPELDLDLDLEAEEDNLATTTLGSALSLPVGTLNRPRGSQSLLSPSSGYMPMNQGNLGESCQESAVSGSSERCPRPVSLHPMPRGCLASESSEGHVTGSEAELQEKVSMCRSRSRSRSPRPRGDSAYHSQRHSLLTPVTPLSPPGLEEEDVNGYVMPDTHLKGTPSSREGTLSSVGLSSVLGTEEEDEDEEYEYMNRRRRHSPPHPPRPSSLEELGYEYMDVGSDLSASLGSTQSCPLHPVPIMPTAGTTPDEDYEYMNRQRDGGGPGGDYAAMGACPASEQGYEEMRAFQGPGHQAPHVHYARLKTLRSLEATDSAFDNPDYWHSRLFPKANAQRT

[5] = tested on: Phosphatidylinositol 4,5-bisphosphate 3-kinase catalytic subunit alpha isoform (Homo sapiens), P42336 [H1047L]; conditions: Compound concentration 100.0 nM
[6] = biological target: Serine/threonine-protein kinase Nek5 (Homo sapiens) (UniProt Q6P3R8); conditions: Compound concentration 100.0 nM
[7] = biological target: MAP/microtubule affinity-regulating kinase 4 (Homo sapiens) (UniProt Q96L34); conditions: Compound concentration 100.0 nM
[8] = biological target: GABA-A receptor; anion channel (Rattus norvegicus) (UniProt O09028+P15431+P18506+P18508+P19969+P20236+P23574+P23576+P28471+P28473+P30191+P62813+P63079+P63138+Q91ZM7+Q9ES14); conditions: Compound concentration 10.0 uM
[9] = biological target: Serine/threonine-protein kinase RIO2 (Homo sapiens) (UniProt Q9BVS4); conditions: Compound concentration 100.0 nM
[10] = biological target: Myosin light chain kinase 2, skeletal/cardiac muscle (Homo sapiens) (UniProt Q9H1R3); conditions: Compound concentration 100.0 nM
[11] = tested on: Receptor-type tyrosine-protein kinase FLT3 (Homo sapiens), P36888 [D835H]; conditions: Compound concentration 100.0 nM
[12] = biological target: Serine/threonine-protein kinase RIO3 (Homo sapiens) (UniProt O14730); conditions: Compound concentration 100.0 nM
[13] = biological target: Epidermal growth factor receptor (Homo sapiens) (UniProt P00533); conditions: Compound concentration 100.0 nM
[14] = tested on: Phosphatidylinositol 4,5-bisphosphate 3-kinase catalytic subunit alpha isoform (Homo sapiens), P42336 [M1043I]; conditions: Compound concentration 100.0 nM
[15] = biological target: Ephrin type-A receptor 4 (Homo sapiens) (UniProt P54764); conditions: Compound concentration 100.0 nM
[16] = biological target: Mitogen-activated protein kinase 9 (Homo sapiens) (UniProt P45984); conditions: Compound concentration 100.0 nM
[17] = biological target: Tyrosine-protein kinase HCK (Homo sapiens) (UniProt P08631); conditions: Compound concentration 100.0 nM
[18] = biological target: Mitogen-activated protein kinase kinase kinase 6 (Homo sapiens) (UniProt O95382); conditions: Compound concentration 100.0 nM
[19] = biological target: Tyrosine-protein kinase ABL1 (Homo sapiens) (UniProt P00519); conditions: Compound concentration 100.0 nM
[20] = biological target: 5-hydroxytryptamine receptor 6 (Homo sapiens) (UniProt P50406); conditions: Compound concentration 10.0 uM
[21] = biological target: Cytoplasmic tyrosine-protein kinase BMX (Homo sapiens) (UniProt P51813); conditions: Compound concentration 100.0 nM
[22] = biological target: 3-phosphoinositide-dependent protein kinase 1 (Homo sapiens) (UniProt O15530); conditions: Compound concentration 100.0 nM
[23] = biological target: Cyclin-dependent kinase 9 (Homo sapiens) (UniProt P50750); conditions: Compound concentration 100.0 nM
[24] = biological target: Phosphatidylinositol 4-kinase beta (Homo sapiens) (UniProt Q9UBF8); conditions: Compound concentration 100.0 nM
[25] = tested on: Proto-oncogene tyrosine-protein kinase receptor Ret (Homo sapiens), P07949 [V804M]; conditions: Compound concentration 100.0 nM
[26] = biological target: Calcium/calmodulin-dependent protein kinase type II subunit delta (Homo sapiens) (UniProt Q13557); conditions: Compound concentration 100.0 nM
[27] = biological target: Activated CDC42 kinase 1 (Homo sapiens) (UniProt Q07912); conditions: Compound concentration 100.0 nM
[28] = tested on: Leucine-rich repeat serine/threonine-protein kinase 2 (Homo sapiens), Q5S007 [G2019S]; conditions: Compound concentration 100.0 nM
[29] = biological target: Wee1-like protein kinase 2 (Homo sapiens) (UniProt P0C1S8); conditions: Compound concentration 100.0 nM
[30] = biological target: Serine/threonine-protein kinase 10 (Homo sapiens) (UniProt O94804); conditions: Compound concentration 100.0 nM
[31] = biological target: Atypical kinase COQ8A, mitochondrial (Homo sapiens) (UniProt Q8NI60); conditions: Compound concentration 100.0 nM
[32] = biological target: Activin receptor type-2B (Homo sapiens) (UniProt Q13705); conditions: Compound concentration 100.0 nM
[33] = biological target: Receptor tyrosine-protein kinase erbB-2 (Homo sapiens) (UniProt P04626); conditions: Compound concentration 100.0 nM
Receptor tyrosine-protein kinase erbB-2 (Homo sapiens), sequence (P04626 whole entry): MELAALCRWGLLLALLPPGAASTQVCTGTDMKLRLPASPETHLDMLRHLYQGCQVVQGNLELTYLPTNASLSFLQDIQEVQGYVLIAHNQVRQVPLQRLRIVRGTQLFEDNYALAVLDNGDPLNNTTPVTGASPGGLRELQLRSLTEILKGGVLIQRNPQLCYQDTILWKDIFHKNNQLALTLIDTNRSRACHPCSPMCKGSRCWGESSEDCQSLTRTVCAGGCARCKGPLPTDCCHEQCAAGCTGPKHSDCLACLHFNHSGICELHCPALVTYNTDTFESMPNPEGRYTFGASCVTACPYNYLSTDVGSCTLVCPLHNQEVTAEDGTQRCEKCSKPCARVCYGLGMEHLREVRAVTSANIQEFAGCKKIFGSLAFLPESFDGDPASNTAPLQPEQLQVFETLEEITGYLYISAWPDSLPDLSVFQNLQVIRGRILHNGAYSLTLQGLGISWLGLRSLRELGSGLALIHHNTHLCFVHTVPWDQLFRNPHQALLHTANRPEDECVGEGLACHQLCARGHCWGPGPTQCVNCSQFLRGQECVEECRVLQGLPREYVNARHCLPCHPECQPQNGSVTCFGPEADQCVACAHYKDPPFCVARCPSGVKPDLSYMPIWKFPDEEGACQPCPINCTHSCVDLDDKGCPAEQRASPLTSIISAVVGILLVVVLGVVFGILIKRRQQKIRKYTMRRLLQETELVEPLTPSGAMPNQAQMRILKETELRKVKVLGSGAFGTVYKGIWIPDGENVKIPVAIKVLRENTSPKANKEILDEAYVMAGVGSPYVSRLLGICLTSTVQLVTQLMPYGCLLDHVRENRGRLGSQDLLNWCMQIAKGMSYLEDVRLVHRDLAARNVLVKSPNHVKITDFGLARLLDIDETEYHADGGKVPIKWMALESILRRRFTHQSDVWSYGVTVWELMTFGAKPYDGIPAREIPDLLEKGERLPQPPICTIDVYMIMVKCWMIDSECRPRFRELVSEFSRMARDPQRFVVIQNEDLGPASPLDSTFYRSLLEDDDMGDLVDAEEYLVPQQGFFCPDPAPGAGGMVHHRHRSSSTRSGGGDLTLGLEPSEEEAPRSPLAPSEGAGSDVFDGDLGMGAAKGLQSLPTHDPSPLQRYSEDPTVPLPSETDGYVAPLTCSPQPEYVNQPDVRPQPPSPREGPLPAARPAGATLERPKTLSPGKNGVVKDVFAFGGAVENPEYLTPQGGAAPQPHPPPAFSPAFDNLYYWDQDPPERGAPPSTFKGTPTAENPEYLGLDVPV

[34] = biological target: Fibroblast growth factor receptor 2 (Homo sapiens) (UniProt P21802); conditions: Compound concentration 100.0 nM
Fibroblast growth factor receptor 2 (Homo sapiens), sequence (P21802 22-821 limits assumed): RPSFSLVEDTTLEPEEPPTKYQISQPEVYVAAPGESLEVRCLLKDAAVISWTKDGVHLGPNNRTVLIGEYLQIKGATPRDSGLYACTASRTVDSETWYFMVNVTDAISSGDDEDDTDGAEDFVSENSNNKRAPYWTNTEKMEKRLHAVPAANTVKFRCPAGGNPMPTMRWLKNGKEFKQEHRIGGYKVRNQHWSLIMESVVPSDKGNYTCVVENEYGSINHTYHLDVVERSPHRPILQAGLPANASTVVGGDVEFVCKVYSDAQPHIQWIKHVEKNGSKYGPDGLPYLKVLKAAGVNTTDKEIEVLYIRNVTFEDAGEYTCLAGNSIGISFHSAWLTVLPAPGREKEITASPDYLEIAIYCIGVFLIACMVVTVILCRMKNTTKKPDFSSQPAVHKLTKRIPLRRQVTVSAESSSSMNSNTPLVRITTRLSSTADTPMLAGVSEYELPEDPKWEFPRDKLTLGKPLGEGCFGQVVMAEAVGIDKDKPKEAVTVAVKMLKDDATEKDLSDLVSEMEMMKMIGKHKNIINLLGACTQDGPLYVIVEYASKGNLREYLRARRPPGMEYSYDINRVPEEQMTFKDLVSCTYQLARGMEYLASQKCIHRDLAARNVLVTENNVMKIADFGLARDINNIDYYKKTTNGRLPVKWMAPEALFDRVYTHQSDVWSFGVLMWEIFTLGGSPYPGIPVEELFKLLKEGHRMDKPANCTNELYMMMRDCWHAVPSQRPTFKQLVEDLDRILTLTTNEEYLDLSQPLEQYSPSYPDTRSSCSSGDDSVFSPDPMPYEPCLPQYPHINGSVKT

[35] = biological target: Ephrin type-A receptor 6 (Homo sapiens) (UniProt Q9UF33); conditions: Compound concentration 100.0 nM
[36] = biological target: LIM domain kinase 2 (Homo sapiens) (UniProt P53671); conditions: Compound concentration 100.0 nM
[37] = biological target: Sodium-dependent serotonin transporter (Homo sapiens) (UniProt P31645); conditions: Compound concentration 10.0 uM
Sodium-dependent serotonin transporter (Homo sapiens), sequence (P31645 whole entry, looked up): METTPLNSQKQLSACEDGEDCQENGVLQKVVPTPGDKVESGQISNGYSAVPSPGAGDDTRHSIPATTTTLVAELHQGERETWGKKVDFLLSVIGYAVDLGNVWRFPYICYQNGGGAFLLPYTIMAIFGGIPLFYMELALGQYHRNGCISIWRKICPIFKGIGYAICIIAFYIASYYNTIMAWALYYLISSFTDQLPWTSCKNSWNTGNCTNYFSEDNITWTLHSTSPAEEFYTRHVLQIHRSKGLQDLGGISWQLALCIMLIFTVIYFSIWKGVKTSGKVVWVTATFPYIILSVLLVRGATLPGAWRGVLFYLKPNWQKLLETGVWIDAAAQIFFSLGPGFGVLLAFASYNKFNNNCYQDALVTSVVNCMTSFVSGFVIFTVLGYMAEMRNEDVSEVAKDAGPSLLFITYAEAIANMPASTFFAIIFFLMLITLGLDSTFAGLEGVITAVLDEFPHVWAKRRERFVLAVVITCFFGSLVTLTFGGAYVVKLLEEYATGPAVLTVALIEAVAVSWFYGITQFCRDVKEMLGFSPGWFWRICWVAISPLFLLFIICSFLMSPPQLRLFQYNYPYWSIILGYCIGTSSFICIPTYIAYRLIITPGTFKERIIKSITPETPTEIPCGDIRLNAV

[38] = biological target: Serine/threonine-protein kinase TBK1 (Homo sapiens) (UniProt Q9UHD2); conditions: Compound concentration 100.0 nM
[39] = biological target: Ribosomal protein S6 kinase beta-1 (Homo sapiens) (UniProt P23443); conditions: Compound concentration 100.0 nM
[40] = biological target: Fibroblast growth factor receptor 1 (Homo sapiens) (UniProt P11362); conditions: Compound concentration 100.0 nM
Fibroblast growth factor receptor 1 (Homo sapiens), sequence (P11362 22-822 limits assumed): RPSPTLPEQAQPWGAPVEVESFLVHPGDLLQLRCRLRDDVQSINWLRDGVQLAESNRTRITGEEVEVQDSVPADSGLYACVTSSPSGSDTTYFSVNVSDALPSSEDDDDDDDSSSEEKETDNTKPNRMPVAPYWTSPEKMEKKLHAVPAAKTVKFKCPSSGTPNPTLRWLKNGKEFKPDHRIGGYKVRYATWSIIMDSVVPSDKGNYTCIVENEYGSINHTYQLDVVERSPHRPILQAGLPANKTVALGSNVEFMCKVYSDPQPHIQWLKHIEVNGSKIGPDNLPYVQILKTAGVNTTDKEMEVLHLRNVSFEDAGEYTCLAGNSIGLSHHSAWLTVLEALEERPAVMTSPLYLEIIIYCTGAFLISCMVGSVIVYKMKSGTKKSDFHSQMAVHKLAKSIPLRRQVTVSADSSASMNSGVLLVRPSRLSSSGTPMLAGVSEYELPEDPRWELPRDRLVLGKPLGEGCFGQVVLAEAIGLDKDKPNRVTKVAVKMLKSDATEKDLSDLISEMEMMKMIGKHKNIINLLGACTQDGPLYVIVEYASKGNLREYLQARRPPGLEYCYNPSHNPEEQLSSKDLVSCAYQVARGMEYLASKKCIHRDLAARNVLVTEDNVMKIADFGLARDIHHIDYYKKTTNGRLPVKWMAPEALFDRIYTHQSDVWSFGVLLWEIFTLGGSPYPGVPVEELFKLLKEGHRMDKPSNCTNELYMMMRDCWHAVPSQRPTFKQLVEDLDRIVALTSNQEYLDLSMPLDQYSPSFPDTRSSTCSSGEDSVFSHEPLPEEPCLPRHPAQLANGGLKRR

[41] = biological target: Dual specificity mitogen-activated protein kinase kinase 1 (Homo sapiens) (UniProt Q02750); conditions: Compound concentration 100.0 nM
[42] = tested on: Phosphatidylinositol 4,5-bisphosphate 3-kinase catalytic subunit alpha isoform (Homo sapiens), P42336 [C420R]; conditions: Compound concentration 100.0 nM
[43] = biological target: Serine/threonine-protein kinase MAK (Homo sapiens) (UniProt P20794); conditions: Compound concentration 100.0 nM

CCOC(=O)c1cc2cc(-c3cc(C(=O)NCc4ccc(C(=O)O)cc4)nn3C)ccc2[nH]1 [BI 4394]
residual activity [1]: 98%
residual activity [2]: 81%
residual activity [3]: 82%
residual activity [4]: 81%
residual activity [5]: 100%
residual activity [6]: 100%
residual activity [7]: 79%
inhibition [8]: 15.3%
residual activity [9]: 100%
residual activity [10]: 89%
residual activity [11]: 100%
residual activity [12]: 100%
residual activity [13]: 92%
residual activity [14]: 100%
residual activity [15]: 96%
residual activity [16]: 96%
residual activity [17]: 100%
residual activity [18]: 79%
residual activity [19]: 94%
inhibition [20]: 4.01%
residual activity [21]: 82%
residual activity [22]: 92%
residual activity [23]: 97%
residual activity [24]: 79%
residual activity [25]: 76%
residual activity [26]: 91%
residual activity [27]: 100%
residual activity [28]: 83%
residual activity [29]: 100%
residual activity [30]: 100%
residual activity [31]: 100%
residual activity [32]: 91%
residual activity [33]: 99%
residual activity [34]: 89%
residual activity [35]: 94%
residual activity [36]: 96%
inhibition [37]: -0.14%
residual activity [38]: 84%
residual activity [39]: 88%
residual activity [40]: 86%
residual activity [41]: 90%
residual activity [42]: 83%
residual activity [43]: 100%

Cn1nc(C(=O)NCc2ccc(C(=O)O)cc2)cc1-c1ccc2[nH]ccc2c1 [BI 4395]
residual activity [1]: 100%
residual activity [2]: 77%
residual activity [3]: 83%
residual activity [4]: 77%
residual activity [5]: 100%
residual activity [6]: 48%
residual activity [7]: 100%
inhibition [8]: 26.6%
residual activity [9]: 100%
residual activity [10]: 83%
residual activity [11]: 46%
residual activity [12]: 83%
residual activity [13]: 100%
residual activity [14]: 85%
residual activity [15]: 100%
residual activity [16]: 60%
residual activity [17]: 81%
residual activity [18]: 88%
residual activity [19]: 62%
inhibition [20]: 8.85%
residual activity [21]: 98%
residual activity [22]: 100%
residual activity [23]: 82%
residual activity [24]: 70%
residual activity [25]: 91%
residual activity [26]: 83%
residual activity [27]: 100%
residual activity [28]: 70%
residual activity [29]: 91%
residual activity [30]: 80%
residual activity [31]: 100%
residual activity [32]: 100%
residual activity [33]: 92%
residual activity [34]: 87%
residual activity [35]: 100%
residual activity [36]: 100%
inhibition [37]: 5.3%
residual activity [38]: 77%
residual activity [39]: 91%
residual activity [40]: 84%
residual activity [41]: 91%
residual activity [42]: 84%
residual activity [43]: 92%
